Experimental data as given in patent publication US7449446B2, “Combination product comprising melagatran and dexamethasone” (AstraZeneca AB, priority 2001, dated 2008).
Values belong to the molecule of their own block, whether it stands above or below them.

What was measured:
Type in all cases: in vivo, Sprague-Dawley rats
[1] = test system: thrombin/antithrombin III complex (TAT); experiment: Thrombin/antithrombin III complex (TAT) in plasma after endotoxin
Method: (§1) The body temperature was maintained at. 38° C. throughout the experiment by external heating.
[…]. […] Sham operated animals received saline instead of endotoxin.

rats given endotoxin = experiment: 125I-fibrinogen in the blood after endotoxin (experimental endotoxaemia); details: high dose heparin (group VIII); melagatran groups IV-VI; melagatran with dexamethasone groups XVII-XX
Method: as §1
(§2) Sham operated animals received saline instead of endotoxin.
Adjustment for multiplicity was done using Scheffe. […] Corrections for multiple comparisons were made according to Bonferroni.

[2] = Plasma concentration of melagatran (LC-MS)
Description: as §2

SMILES: NC[C@H]1CC[C@H](C(=O)O)CC1 [tranexamic acid]
TAT ([1]; measured in some animals, group III, groups XV-XX): 55.5 ± 6.6 µg/L

mean plasma concentration of melagatran during the 5 h experiment ([2]; group IV, Mela low 0.13 μmol/kg bolus + 0.32 μmol/kg/h iv): 0.78 ± 0.08 µmol/L
plasma concentration of melagatran combined with heparin ([2]; group IX, Hep low + Mela low): 720 ± 90 nM
mean plasma concentration of melagatran during the 5 h experiment ([2]; group V, Mela med 0.4 μmol/kg bolus + 1.0 μmol/kg/h iv): 2.83+0.45 μmol/l
mean plasma concentration of melagatran during the 5 h experiment ([2]; group VI, Mela high 1.3 μmol/kg bolus + 3.2 μmol/kg/h iv): 6.88 ± 0.42 µmol/L
plasma concentration of melagatran combined with heparin ([2]; group X, Hep low + Mela med): 1970 ± 160 nM
plasma concentration of melagatran in combination with dexamethasone ([2]; high dose group, first value (group XVIII, Dexa low 1 mg/kg + melagatran 0.4 μmol/kg + 1.0 μmol/kg/h)): 1490 ± 130 nM
plasma concentration of melagatran in combination with dexamethasone ([2]; high dose group, second value (group XX, Dexa high 10 mg/kg + melagatran 0.4 μmol/kg + 1.0 μmol/kg/h)): 1280 ± 100 nM
plasma concentration of melagatran in combination with dexamethasone ([2]; low dose group, first value (group XVII, Dexa low 1 mg/kg + melagatran 0.13 μmol/kg + 0.32 μmol/kg/h)): 480 ± 10 nM
plasma concentration of melagatran in combination with dexamethasone ([2]; low dose group, second value (group XIX, Dexa high 10 mg/kg + melagatran 0.13 μmol/kg + 0.32 μmol/kg/h)): 460 ± 20 nM
SMILES: N=C(N)c1ccc(CNC(=O)[C@@H]2CCN2C(=O)[C@H](NCC(=O)O)C2CCCCC2)cc1 [melagatran, HOOC—CH2—(R)Cgl-Aze-Pab-H]
fibrinogen consumption (rats given endotoxin): completely prevented

SMILES: C[C@@H]1C[C@H]2[C@@H]3CCC4=CC(=O)C=C[C@]4(C)[C@@]3(F)[C@@H](O)C[C@]2(C)[C@@]1(O)C(=O)CO [dexamethasone, Dexamethasone]
TAT (thrombin generation) ([1]; dexamethasone groups (discussion)): below 8 μg/l
